Reference: ChEMBL document CHEMBL5390257, “Fused Tetrahydroquinolines Are Interfering with Your Assay” (J Med Chem, 2023)

Experiments:
[1] = Inhibition of MurA (unknown origin) preincubated for 30 mins followed by substrate addition and measured after 8 mins by spectrometric analysis; set-up: species or system Bacteria
[2] = Binding affinity to Yellow fever virus 17D recombinant NS5 N-terminal capping enzyme domain expressed in Escherichia coli BL21 (DE3) assessed as inhibition constant incubated for 1 hr by high-throughput screening fluorescence polarization assay
[3] = molecular target: SH3 and multiple ankyrin repeat domains protein 3 (Mus musculus, UniProt Q4ACU6); assay: Binding affinity to His-tagged murine Shank3 PDZ domain assessed as inhibition constant by fluorescence polarization assay
Chain of SH3 and multiple ankyrin repeat domains protein 3 (Q4ACU6 whole entry, the tested form may be a part): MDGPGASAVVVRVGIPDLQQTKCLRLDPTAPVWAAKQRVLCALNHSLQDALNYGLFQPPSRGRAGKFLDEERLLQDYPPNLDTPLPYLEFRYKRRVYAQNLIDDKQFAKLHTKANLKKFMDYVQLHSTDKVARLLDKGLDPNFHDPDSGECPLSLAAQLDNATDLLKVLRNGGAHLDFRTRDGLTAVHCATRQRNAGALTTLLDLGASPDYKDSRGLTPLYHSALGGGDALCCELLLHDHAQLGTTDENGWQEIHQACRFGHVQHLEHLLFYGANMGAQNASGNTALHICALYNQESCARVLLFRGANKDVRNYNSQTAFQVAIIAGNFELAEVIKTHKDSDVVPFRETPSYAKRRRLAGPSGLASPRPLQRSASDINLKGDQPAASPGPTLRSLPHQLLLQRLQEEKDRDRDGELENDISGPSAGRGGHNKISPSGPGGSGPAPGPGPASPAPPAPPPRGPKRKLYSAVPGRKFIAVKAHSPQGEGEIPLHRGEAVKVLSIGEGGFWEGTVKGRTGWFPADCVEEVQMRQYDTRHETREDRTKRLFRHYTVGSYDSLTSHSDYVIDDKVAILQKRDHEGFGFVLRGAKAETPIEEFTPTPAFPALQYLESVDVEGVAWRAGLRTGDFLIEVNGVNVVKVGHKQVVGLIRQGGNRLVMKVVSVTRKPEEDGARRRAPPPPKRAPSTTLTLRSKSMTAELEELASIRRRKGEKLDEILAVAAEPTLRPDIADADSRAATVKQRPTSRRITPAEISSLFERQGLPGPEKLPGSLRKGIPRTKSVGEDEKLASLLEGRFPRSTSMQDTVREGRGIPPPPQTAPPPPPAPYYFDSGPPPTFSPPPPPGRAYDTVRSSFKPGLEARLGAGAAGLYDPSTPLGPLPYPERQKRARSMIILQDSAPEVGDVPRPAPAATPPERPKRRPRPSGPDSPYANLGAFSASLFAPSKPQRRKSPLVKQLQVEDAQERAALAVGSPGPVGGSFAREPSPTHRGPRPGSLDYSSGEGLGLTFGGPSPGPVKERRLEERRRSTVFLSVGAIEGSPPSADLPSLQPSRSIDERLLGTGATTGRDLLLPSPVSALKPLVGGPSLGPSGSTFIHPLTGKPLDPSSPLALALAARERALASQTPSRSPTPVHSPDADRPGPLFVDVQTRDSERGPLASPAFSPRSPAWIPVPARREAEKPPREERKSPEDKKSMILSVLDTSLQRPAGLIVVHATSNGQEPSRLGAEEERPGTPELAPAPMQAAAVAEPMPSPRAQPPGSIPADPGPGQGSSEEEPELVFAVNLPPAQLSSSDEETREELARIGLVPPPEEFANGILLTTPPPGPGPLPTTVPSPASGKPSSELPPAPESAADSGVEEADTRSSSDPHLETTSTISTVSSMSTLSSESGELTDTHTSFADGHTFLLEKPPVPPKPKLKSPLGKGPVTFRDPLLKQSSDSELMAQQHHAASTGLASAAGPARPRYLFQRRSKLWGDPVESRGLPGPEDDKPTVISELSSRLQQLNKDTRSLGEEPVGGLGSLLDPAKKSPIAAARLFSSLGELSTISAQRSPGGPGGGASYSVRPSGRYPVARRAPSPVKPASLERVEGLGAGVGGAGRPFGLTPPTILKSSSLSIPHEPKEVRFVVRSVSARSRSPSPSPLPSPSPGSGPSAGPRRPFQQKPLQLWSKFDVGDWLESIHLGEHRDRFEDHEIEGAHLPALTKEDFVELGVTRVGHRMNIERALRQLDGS

[4] = molecular target: Serine/threonine-protein kinase PLK1 (Homo sapiens, UniProt P53350); assay: Inhibition of GST-tagged recombinant PLK1 (unknown origin) using 5-carboxyfluorescein-KKRNRRLSVA-OH peptide as substrate incubated for 3 hrs in presence of ATP by HTS TR-FRET assay
Chain of Serine/threonine-protein kinase PLK1 (P53350 whole entry): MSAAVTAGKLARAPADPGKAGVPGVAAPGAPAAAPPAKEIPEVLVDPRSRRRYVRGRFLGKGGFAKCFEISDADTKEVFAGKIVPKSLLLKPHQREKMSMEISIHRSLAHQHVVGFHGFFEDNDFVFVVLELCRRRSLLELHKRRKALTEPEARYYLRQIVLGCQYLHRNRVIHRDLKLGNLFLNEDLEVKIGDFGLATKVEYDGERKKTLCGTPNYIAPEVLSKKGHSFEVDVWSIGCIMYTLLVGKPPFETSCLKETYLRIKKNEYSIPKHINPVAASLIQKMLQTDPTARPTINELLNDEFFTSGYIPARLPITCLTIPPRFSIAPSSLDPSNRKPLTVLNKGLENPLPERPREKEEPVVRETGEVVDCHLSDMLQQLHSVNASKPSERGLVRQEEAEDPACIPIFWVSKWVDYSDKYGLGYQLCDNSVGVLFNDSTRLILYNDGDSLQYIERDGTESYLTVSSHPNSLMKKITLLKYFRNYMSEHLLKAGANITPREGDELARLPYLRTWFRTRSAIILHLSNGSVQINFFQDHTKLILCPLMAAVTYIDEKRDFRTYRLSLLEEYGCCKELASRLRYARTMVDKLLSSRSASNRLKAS

[5] = molecular target: T1, M-phase inducer phosphatase 2 (Homo sapiens, UniProt P30305); assay: Inhibition of full-length 6His/GST-tagged recombinant human CDC25B using OMFP as substrate incubated for 60 mins by fluorescence based analysis
T1 sequence (P30305 whole entry): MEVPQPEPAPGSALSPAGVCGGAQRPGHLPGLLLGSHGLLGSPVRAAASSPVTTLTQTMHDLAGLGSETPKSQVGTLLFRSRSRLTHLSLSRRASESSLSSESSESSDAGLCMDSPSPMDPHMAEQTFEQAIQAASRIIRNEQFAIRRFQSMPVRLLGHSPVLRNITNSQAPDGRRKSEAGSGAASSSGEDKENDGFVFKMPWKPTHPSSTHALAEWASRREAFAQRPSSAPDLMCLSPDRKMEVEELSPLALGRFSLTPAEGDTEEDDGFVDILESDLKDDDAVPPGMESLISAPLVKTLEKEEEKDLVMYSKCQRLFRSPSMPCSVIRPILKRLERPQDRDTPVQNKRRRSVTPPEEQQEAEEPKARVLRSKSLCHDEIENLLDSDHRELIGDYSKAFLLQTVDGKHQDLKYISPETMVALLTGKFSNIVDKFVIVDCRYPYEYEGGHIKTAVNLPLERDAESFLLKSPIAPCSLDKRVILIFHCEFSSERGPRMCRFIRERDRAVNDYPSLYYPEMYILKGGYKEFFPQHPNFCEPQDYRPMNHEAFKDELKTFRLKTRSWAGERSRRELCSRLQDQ

[6] = molecular target: T2, Tyrosine-protein phosphatase non-receptor type 1 (Homo sapiens) (UniProt P18031); assay: Inhibition of PTP1B (unknown origin) using pNPP as substrate assessed as fraction of control at 100 uM by high-throughput screening assay relative to control
T2 sequence (whole entry): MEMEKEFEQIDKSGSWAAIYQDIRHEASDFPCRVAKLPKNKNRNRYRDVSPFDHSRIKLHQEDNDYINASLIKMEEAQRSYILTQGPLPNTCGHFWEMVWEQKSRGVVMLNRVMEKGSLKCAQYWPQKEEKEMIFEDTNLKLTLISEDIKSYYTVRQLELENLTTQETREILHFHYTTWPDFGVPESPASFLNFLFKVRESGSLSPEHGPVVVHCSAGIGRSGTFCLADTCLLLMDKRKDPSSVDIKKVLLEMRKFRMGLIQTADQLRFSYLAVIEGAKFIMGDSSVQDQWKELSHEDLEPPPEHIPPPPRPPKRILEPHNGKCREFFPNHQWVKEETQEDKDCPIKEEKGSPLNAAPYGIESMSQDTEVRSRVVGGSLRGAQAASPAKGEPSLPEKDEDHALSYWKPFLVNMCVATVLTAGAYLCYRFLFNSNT

[7] = molecular target: T3, Tyrosine-protein phosphatase non-receptor type 5 (Homo sapiens) (UniProt P54829); assay: Inhibition of PTPN5 (unknown origin) using pNPP as substrate assessed as fraction of control at 100 uM by high-throughput screening assay relative to control
T3 sequence (whole entry): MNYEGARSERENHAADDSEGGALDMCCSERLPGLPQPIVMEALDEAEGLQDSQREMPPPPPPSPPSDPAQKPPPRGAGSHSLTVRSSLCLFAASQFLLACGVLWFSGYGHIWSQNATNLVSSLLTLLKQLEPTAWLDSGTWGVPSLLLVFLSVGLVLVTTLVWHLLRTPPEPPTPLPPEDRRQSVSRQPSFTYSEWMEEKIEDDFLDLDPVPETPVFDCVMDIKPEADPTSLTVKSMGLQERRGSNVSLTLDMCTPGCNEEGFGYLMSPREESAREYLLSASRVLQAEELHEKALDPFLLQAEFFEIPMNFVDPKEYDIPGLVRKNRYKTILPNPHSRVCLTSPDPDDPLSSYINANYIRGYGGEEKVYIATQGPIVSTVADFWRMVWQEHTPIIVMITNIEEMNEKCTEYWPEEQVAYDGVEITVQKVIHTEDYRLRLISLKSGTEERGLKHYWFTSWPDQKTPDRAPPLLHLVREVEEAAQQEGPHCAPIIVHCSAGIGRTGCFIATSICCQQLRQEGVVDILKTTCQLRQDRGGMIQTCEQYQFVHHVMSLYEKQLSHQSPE

[8] = molecular target: T4, Tyrosine-protein phosphatase non-receptor type 7 (Homo sapiens) (UniProt P35236); assay: Inhibition of PTPN7 (unknown origin) using pNPP as substrate assessed as fraction of control at 100 uM by high-throughput screening assay relative to control
T4 sequence (whole entry): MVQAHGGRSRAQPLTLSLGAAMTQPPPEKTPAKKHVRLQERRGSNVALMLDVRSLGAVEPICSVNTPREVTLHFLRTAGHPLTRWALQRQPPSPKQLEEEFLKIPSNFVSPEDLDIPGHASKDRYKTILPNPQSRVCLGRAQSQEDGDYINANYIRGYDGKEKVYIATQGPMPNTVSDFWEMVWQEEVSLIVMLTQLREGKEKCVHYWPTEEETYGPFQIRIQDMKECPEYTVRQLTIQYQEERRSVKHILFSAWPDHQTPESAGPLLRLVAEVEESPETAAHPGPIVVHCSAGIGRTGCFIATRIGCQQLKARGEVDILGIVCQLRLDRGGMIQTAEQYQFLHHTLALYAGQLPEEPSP

[9] = molecular target: T5, Receptor-type tyrosine-protein phosphatase R (Homo sapiens) (UniProt Q15256); assay: Inhibition of PTPRR (unknown origin) using pNPP as substrate assessed as fraction of control at 100 uM by high-throughput screening assay relative to control
T5 sequence (whole entry): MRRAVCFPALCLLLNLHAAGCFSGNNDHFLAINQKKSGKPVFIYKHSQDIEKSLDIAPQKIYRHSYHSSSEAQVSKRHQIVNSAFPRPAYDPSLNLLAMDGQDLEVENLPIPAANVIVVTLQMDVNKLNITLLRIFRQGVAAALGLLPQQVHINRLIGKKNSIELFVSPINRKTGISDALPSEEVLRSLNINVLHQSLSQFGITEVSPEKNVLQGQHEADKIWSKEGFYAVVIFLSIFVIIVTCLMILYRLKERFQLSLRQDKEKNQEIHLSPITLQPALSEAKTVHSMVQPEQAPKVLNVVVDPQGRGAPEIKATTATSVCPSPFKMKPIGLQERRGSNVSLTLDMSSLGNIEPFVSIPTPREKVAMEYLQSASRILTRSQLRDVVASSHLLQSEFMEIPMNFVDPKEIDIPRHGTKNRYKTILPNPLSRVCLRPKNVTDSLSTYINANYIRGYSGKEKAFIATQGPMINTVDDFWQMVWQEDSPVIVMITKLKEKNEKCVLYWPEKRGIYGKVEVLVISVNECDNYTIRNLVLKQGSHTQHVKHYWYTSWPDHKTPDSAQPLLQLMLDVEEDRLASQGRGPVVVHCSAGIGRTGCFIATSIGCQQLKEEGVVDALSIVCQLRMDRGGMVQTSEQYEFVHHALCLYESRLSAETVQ

[10] = molecular target: Diacylglycerol kinase alpha (Sus scrofa, UniProt P20192); assay: Inhibition of GST-fused pig DGK alpha expressed in Sf9 insect cells incubated for 2 hrs by HTS ADP-Glo DGK assay
Chain of Diacylglycerol kinase alpha (P20192 whole entry, the tested form may be a part): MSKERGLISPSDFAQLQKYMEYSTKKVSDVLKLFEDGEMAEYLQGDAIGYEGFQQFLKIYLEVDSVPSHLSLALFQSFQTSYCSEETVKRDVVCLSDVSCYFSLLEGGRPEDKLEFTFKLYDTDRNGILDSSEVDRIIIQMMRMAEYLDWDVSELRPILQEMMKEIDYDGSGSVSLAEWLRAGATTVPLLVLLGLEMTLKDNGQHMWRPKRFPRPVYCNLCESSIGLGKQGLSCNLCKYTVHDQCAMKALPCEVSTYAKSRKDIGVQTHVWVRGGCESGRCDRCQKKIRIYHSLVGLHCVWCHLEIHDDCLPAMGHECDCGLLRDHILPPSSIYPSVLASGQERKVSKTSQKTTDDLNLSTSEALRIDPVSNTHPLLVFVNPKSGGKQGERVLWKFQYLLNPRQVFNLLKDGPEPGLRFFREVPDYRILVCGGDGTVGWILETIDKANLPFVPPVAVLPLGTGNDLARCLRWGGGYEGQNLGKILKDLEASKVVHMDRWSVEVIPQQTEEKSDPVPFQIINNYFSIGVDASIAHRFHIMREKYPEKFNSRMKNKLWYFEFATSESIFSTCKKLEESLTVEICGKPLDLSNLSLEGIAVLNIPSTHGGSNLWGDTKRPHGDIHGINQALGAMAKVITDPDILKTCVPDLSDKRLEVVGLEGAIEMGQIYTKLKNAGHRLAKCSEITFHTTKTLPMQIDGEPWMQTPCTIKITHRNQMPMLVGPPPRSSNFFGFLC

[11] = molecular target: T6, Tyrosine-protein phosphatase non-receptor type 1 (Homo sapiens, UniProt P18031); assay: Inhibition of human recombinant PTP1B using OMFP as substrate incubated for 60 mins by fluorescence based analysis
T6 sequence (P18031 whole entry): T2 sequence (whole entry)

[12] = Inhibition of Helicobacter pylori recombinant IspD domain of IspDF by HTS based photometric assay

SMILES: O=C(O)C1Nc2cc(-c3cccnc3)ccc2C2C=CCC12 (stereo not drawn)
- IC50 [1]: < 5 µM

SMILES: CNc1ccc2c(c1)C1C=CCC1C(C(=O)O)N2 (stereo not drawn)
- IC50 [1]: < 5 µM

SMILES: NC(=O)c1ccc2c(c1)C1C=CCC1C(C(=O)O)N2 (stereo not drawn)
- IC50 [1]: < 5 µM

SMILES: O=C(O)C1Nc2c(I)cccc2C2C=CCC12 (stereo not drawn)
- Ki [2]: 7.1 µM

SMILES: O=C(O)c1ccc([N+](=O)[O-])c2c1N[C@@H](C(=O)O)[C@H]1CC=C[C@@H]21
- Ki [3]: 17 µM

SMILES: O=C(O)c1ccc2c(c1)[C@@H]1C=CC[C@@H]1[C@H](c1ccccn1)N2
- IC50 [4]: 17 µM

SMILES: O=C(O)C1Nc2ccc(Cl)cc2C2C=CCC12 (stereo not drawn)
- IC50 [5]: 2.5 µM

SMILES: NC(=O)c1cccc2c1NC(C(=O)O)C1CC=CC21 (stereo not drawn)
- IC50 [1]: < 5 µM

SMILES: Cc1ccc2c(c1)C1C=CCC1C(C(=O)O)N2 (stereo not drawn)
- IC50 [1]: < 5 µM

SMILES: O=C(O)C1Nc2ccccc2C2C=CCC12 (stereo not drawn)
- fold change (FC) [6]: 0.23
- fold change (FC) [7]: 0.73
- fold change (FC) [8]: 0.41
- fold change (FC) [9]: 0.08

SMILES: CCOC(=O)C1Nc2cccc(C(=O)O)c2C2C=CCC12 (stereo not drawn)
- IC50 [1]: < 5 µM

SMILES: O=C(O)c1ccc2c(c1)[C@@H]1C=CC[C@@H]1[C@H](C(=O)O)N2
- Ki [3]: 70 µM

SMILES: CC(=O)Nc1ccc2c(c1)NC(C(=O)O)C1CC=CC21 (stereo not drawn)
- IC50 [1]: < 5 µM

SMILES: O=C(O)C1Nc2c(F)cccc2C2C=CCC12 (stereo not drawn)
- fold change (FC) [6]: 0.23
- fold change (FC) [7]: 0.73
- fold change (FC) [8]: 0.41
- fold change (FC) [9]: 0.08

SMILES: O=C(O)C1Nc2c(O)cccc2C2C=CCC12 (stereo not drawn)
- fold change (FC) [6]: 0.23
- fold change (FC) [7]: 0.73
- fold change (FC) [8]: 0.41
- fold change (FC) [9]: 0.08

SMILES: O=C(O)c1ccc2c(c1)NC(C(=O)O)C1CC=CC21 (stereo not drawn)
- IC50 [1]: < 5 µM

SMILES: CC(=O)c1ccc2c(c1)C1C=CCC1C(C(=O)O)N2 (stereo not drawn)
- fold change (FC) [6]: 0.23
- fold change (FC) [7]: 0.73
- fold change (FC) [8]: 0.41
- fold change (FC) [9]: 0.08
- IC50 [10]: 6 µM
- IC50 [1]: < 5 µM

SMILES: O=C(O)c1cccc2c1C1C=CCC1C(C(=O)O)N2 (stereo not drawn)
- IC50 [1]: < 5 µM

SMILES: O=C(O)C1Nc2ccc(Br)cc2C2C=CCC12 (stereo not drawn)
- fold change (FC) [6]: 0.23
- fold change (FC) [7]: 0.73
- fold change (FC) [8]: 0.41
- fold change (FC) [9]: 0.08

SMILES: O=C(O)C1Nc2ccc(F)cc2C2C=CCC12 (stereo not drawn)
- IC50 [1]: < 5 µM

SMILES: O=C(O)c1ccc2c(c1)C1C=CCC1C(C(=O)O)N2 (stereo not drawn)
- fold change (FC) [6]: 0.23
- IC50 [5]: 2.5 µM
- IC50 [11]: 6.6 µM
- fold change (FC) [7]: 0.73
- fold change (FC) [8]: 0.41
- fold change (FC) [9]: 0.08
- IC50 [1]: < 5 µM

SMILES: CN(C)C(=O)c1ccc2c(c1)C1C=CCC1C(C(=O)O)N2 (stereo not drawn)
- IC50 [1]: < 5 µM

SMILES: COC(=O)c1cccc2c1NC(C(=O)O)C1CC=CC21 (stereo not drawn)
- IC50 [1]: < 5 µM

SMILES: O=C(O)C1Nc2ccc(Nc3ccccc3)cc2C2C=CCC12 (stereo not drawn)
- IC50 [1]: < 5 µM

SMILES: COc1ccc2c(c1)C1C=CCC1C(C(=O)O)N2 (stereo not drawn)
- IC50 [1]: < 5 µM

SMILES: O=C(O)C1Nc2ccc(Oc3ccccc3)cc2C2C=CCC12 (stereo not drawn)
- IC50 [12]: 2.4 µM

SMILES: O=C(O)C1Nc2ccc(OC(F)(F)F)cc2C2C=CCC12 (stereo not drawn)
- IC50 [1]: < 5 µM

SMILES: CC(=O)Nc1ccc(OC(=O)c2cccc3c2NC(C(=O)O)C2CC=CC32)cc1 (stereo not drawn)
- IC50 [1]: < 5 µM

SMILES: O=C(O)C1Nc2ccc(F)c(Cl)c2C2C=CCC12 (stereo not drawn)
- IC50 [1]: < 5 µM

SMILES: O=C(O)c1cccc2c1NC(C(=O)O)C1CC=CC21 (stereo not drawn)
- fold change (FC) [6]: 0.23
- IC50 [5]: 2.5 µM
- fold change (FC) [7]: 0.73
- fold change (FC) [8]: 0.41
- fold change (FC) [9]: 0.08
- IC50 [1]: < 5 µM
